Laboratory results published in PMC11435058, “Synthesis of New Thiazole-Privileged Chalcones as Tubulin Polymerization Inhibitors with Potential Anticancer Activities” (Pharmaceuticals, 2024).

What was measured:
NCI-H23 = experiment: NCI-60 anticancer screen (SRB; single dose and five doses); conditions: Homo sapiens; for activity at 10 µM: NCI-H23, 48 h, read-out: Growth Percentage; for GI50 / IC50: NCI-H23; for CC50: NCI-H23, read-out: LC50; for IC (TGI): NCI-H23, read-out: TGI
RXF 393 = experiment: as above; conditions: Homo sapiens; for activity at 10 µM: RXF 393, 48 h, read-out: Growth Percentage; for GI50 / IC50: RXF 393; for CC50: RXF 393, read-out: LC50; for IC (TGI): RXF 393, read-out: TGI
SK-MEL-2 = experiment: as above; conditions: Homo sapiens; for activity at 10 µM: SK-MEL-2, 48 h, read-out: Growth Percentage; for GI50 / IC50: SK-MEL-2; for CC50: SK-MEL-2, read-out: LC50; for IC (TGI): SK-MEL-2, read-out: TGI
IGROV1 = experiment: as above; conditions: Homo sapiens; for activity at 10 µM: IGROV-1, 48 h, read-out: Growth Percentage; for GI50 / IC50: IGROV-1; for CC50: IGROV-1, read-out: LC50; for IC (TGI): IGROV-1, read-out: TGI
CCRF-CEM = experiment: NCI-60 anticancer screen (SRB; single dose 10 μM and five doses); conditions: Homo sapiens; for activity at 10 µM: 48 h, read-out: Growth Percentage; for IC (TGI): read-out: TGI
OVCAR-8 = experiment: NCI-60 anticancer screen (SRB; single dose and five doses); conditions: Homo sapiens; for activity at 10 µM: OVCAR-8, 48 h, read-out: Growth Percentage; for GI50 / IC50: OVCAR-8; for CC50: OVCAR-8, read-out: LC50; for IC (TGI): OVCAR-8, read-out: TGI
COLO 205 = experiment: NCI-60 anticancer screen (SRB; single dose and five doses); conditions: Homo sapiens; for activity at 10 µM: COLO 205, 48 h, read-out: Growth Percentage; for GI50 / IC50: COLO 205; for CC50: COLO 205, read-out: LC50; for IC (TGI): COLO 205, read-out: TGI
tubulin = experiment: In vitro tubulin polymerization inhibition assay; type: biochemical; conditions: 4 mg/mL tubulin, 37°C, absorbance at 340 nm
Description: 4.2.2. In Vitro Tubulin Polymerization Inhibition Assay.
2p, and the reference drug CD -4) with the microtubule system. Specifically, the in vitro inhibition of tubulin polymerization was evaluated for these compounds. The standard tubulin polymerization reaction was carried out, containing 100 μL of 4 mg/mL tubulin in a buffer solution of 80 mM PIPES (pH 6.9), 0.5 mM EGTA, 2 mM MgCl2, and 1 mM GTP. Polymerization was initiated by incubating the reaction […]
Under these conditions, polymerization typically reaches a maximum absorbance of […]
growth, and steady state. In this experimental set up, an absorbance of 0.1 at 340 nm corresponds to approximately 1 mg/mL of polymerized tubulin, meaning that around […]
40% of the tubulin is polymerized, allowing for the detection of both enhancers and inhibitors of polymerization. The inhibitory effect of each compound on tubulin polymerization was quantified by determining the IC50 values, which were reported as the mean ± standard deviation from three independent experiments. […]

| Compound | activity at 10 µM (NCI-H23) [%] | activity at 10 µM (RXF 393) [%] | activity at 10 µM (SK-MEL-2) [%] | activity at 10 µM (IGROV1) [%] | activity at 10 µM (CCRF-CEM) [%] | activity at 10 µM (OVCAR-8) [%] | melting point [°C] | activity at 10 µM (COLO 205) [%] | GI50 (NCI-H23) [µM] | CC50 (NCI-H23) [µM] | IC (TGI) (NCI-H23) [µM] | GI50 (RXF 393) [µM] | CC50 (RXF 393) [µM] | IC (TGI) (RXF 393) [µM] | GI50 (SK-MEL-2) [µM] | CC50 (SK-MEL-2) [µM] | IC (TGI) (SK-MEL-2) [µM] | GI50 (IGROV1) [µM] | CC50 (IGROV1) [µM] | IC (TGI) (IGROV1) [µM] | also measured |
| --- | --- | --- | --- | --- | --- | --- | --- | --- | --- | --- | --- | --- | --- | --- | --- | --- | --- | --- | --- | --- | --- |
| Cc1[nH]c(=S)sc1C(=O)/C=C/c1ccccc1 [2a, (E)-1-(4-Methyl-2-Thioxo-2,3-Dihydrothiazol-5-yl)-3-Phenylprop-2-En-1-One] | 77.5 | 46.4 | 68.2 | 81.8 | 37.2 | 65.8 | 245 to 247 | – | – | – | – | – | – | – | – | – | – | – | – | – | – |
| Cc1[nH]c(=S)sc1C(=O)/C=C/c1cccc(F)c1 [2b, (E)-3-(3-Fluorophenyl)-1-(4-Methyl-2-Thioxo-2,3-Dihydrothiazol-5-yl)Prop-2-En-1-One] | 71.1 | 23.2 | 81.2 | 32.3 | 15.4 | 60.5 | 234 to 236 | 94.5 | – | – | – | – | – | – | – | – | – | – | – | – | – |
| Cc1[nH]c(=S)sc1C(=O)/C=C/c1ccc(F)cc1 [2c, (E)-3-(4-Fluorophenyl)-1-(4-Methyl-2-Thioxo-2,3-Dihydrothiazol-5-yl)Prop-2-En-1-One] | 62.7 | 23.2 | 56.6 | 51.2 | -0.21 | -13.6 | – | – | 10.6 | 49.9 | 23 | 3.02 | 37.2 | 13 | 11.6 | 50.1 | 24.1 | 4.93 | 62.3 | 19.7 | GI50 (CCRF-CEM): 3680 nM; IC (TGI) (CCRF-CEM): > 100 µM; GI50 (OVCAR-8): 3.99 µM; CC50 (OVCAR-8): 50.9 µM; IC (TGI) (OVCAR-8): 16.2 µM; GI50 (COLO 205): 15.4 µM; CC50 (COLO 205): 80.4 µM; IC (TGI) (COLO 205): 35.2 µM |
| Cc1[nH]c(=S)sc1C(=O)/C=C/c1ccccc1Cl [2d, (E)-3-(2-Chlorophenyl)-1-(4-Methyl-2-Thioxo-2,3-Dihydrothiazol-5-yl)Prop-2-En-1-One] | 91.8 | 93.8 | 84.8 | 91.9 | 46.8 | 85.4 | 240 to 242 | 118 | – | – | – | – | – | – | – | – | – | – | – | – | – |
| Cc1[nH]c(=S)sc1C(=O)/C=C/c1cccc(Cl)c1 [2e, (E)-3-(3-Chlorophenyl)-1-(4-Methyl-2-Thioxo-2,3-Dihydrothiazol-5-yl)Prop-2-En-1-One] | 18 | 10.7 | 32.1 | 34 | 15.2 | 10.4 | – | 70.7 | 2.09 | 12.9 | 4.68 | 1.91 | 10 | 4.37 | 10.5 | 70.8 | 27.5 | 2.45 | > 100 | 6.46 | IC50 (NCI-H23): 3.63 µM; IC50 (RXF 393): 5.13 µM; IC50 (SK-MEL-2): 29.5 µM; IC50 (IGROV1): 4.17 µM; GI50 (CCRF-CEM): 2450 nM; IC50 (CCRF-CEM): 3.72 µM; IC (TGI) (CCRF-CEM): 7.94 µM; GI50 (OVCAR-8): 2.69 µM; IC50 (OVCAR-8): 3.89 µM; CC50 (OVCAR-8): > 100 µM; IC (TGI) (OVCAR-8): 7.59 µM; IC50 (tubulin): 4.93 µM; GI50 (COLO 205): 3.55 µM; IC50 (COLO 205): 5.25 µM; CC50 (COLO 205): 51.3 µM; IC (TGI) (COLO 205): 14.4 µM |
| Cc1[nH]c(=S)sc1C(=O)/C=C/c1ccc(Cl)cc1 [2f, (E)-3-(4-Chlorophenyl)-1-(4-Methyl-2-Thioxo-2,3-Dihydrothiazol-5-yl)Prop-2-En-1-One] | 36.4 | 9.78 | 58.4 | – | 3.18 | 4.96 | – | 78.2 | 14.8 | 58.9 | 29.5 | 5.89 | 49 | 19.9 | 13.8 | 56.2 | 28.2 | 13.2 | 93.3 | 34.7 | IC50 (NCI-H23): 26.9 µM; IC50 (RXF 393): 24 µM; IC50 (SK-MEL-2): 27.5 µM; IC50 (IGROV1): 25.7 µM; GI50 (CCRF-CEM): 2880 nM; IC50 (CCRF-CEM; five doses): 2.88 µM; IC50 (CCRF-CEM; five-dose, Leukemia CCRF-CEM): 3.98 µM; IC (TGI) (CCRF-CEM): 11.2 µM; GI50 (OVCAR-8): 8.51 µM; IC50 (OVCAR-8): 14.5 µM; CC50 (OVCAR-8): 55 µM; IC (TGI) (OVCAR-8): 22.9 µM; GI50 (COLO 205): 19.1 µM; IC50 (COLO 205): 33.9 µM; CC50 (COLO 205): 74.1 µM; IC (TGI) (COLO 205): 38 µM |
